Measurements reported in patent publication US20260248828A1, “Pyropheophorbide Analogues for Therapy and Diagnosis” (RMW Cho Group Limited, priority 2023, published 2026).
Read-outs that look alike come from different tables or passages of the source.

Experiments:
[1] = tested on: SKOV3 ovarian cancer cells; assay: Phototoxicity in SKOV3 cells after 660 nm light activation (AlamarBlue viability); format: cell-based, Human; conditions: 24 h uptake, 660 nm laser or LED 50 mW/cm^2 for 5 mins (15 J/cm^2), viability 24 h after activation
Procedure: Samples were stored at 4° C. protected from light.
All data are shown as mean±SD (where appropriate).
To test for phototoxicity, cells incubated with pyropheophorbide a analogues (0-20 μM in DMSO) had culture media replaced after 24 hours (as above) and were then exposed to a 660 nm laser (Invion) or light-emitting diode (LED) panel (Invion) with optical power density at 50 mW/cm^2 for 5 mins (total 15 J/cm^2). Laser and LED exposure induce an equivalent response in relation to phototoxicity. Following activation, cells were cultured for a further 24 hours. Media was then replaced with fresh media containing AlamarBlue, and % viable cells remaining assessed as above. Controls included cells treated with pyropheophorbide a analogues but not activated by laser light; cells without pyropheophorbide a analogue treatment but with laser light; and untreated controls. All measurements were made in quadruplicate.
To evaluate the therapeutic potential of pyropheophorbide a analogues, the therapeutic index (TI) was calculated. TI provides a quantitative measurement to describe relative drug safety, by comparing the drug concentration required for desirable effects versus the concentration resulting in undesirable off-target toxicity. TI was calculated using phototoxicity IC90 vs dark toxicity IC10.

[2] = tested on: SKOV3 ovarian cancer cells
Procedure: (§1) Photosensitizers (e.g. pyropheophorbide a analogue, chlorin e4 disodium (provided by Advanced Molecular Technologies, Scoresby) or Talaporfin sodium (purchased from Focus Bioscience cat #HY-16477-5MG)) were resuspended in 100% dimethylsulfoxide (DMSO) at a concentration of 5.5 mM. Samples were stored at 4° C. protected from light.
(§2) For in vitro experiments, photosensitizers (stock solution 5.5 mM in 100% DMSO) were diluted 1:100 in concentrated excipient solution (final 55 M photosensitizer in 10% w/v Kollidon-12, 42.4% w/v polysorbate 80, 0.6% w/v citric acid anhydrous, 40% w/v ethanol, 1.0% DMSO). Serial dilutions were prepared in cell culture media (Dulbecco's Modified Eagle Medium/Nutrient Mixture F-12 (DMEM/F-12)) supplemented with 10% v/v Fetal Bovine Serum, 100 U/mL penicillin, 100 μg/mL streptomycin and the same excipient solution at a constant 1:55 dilution.
(§3) Human ovarian cancer cell line SKOV3 (ATCC #HTB-77) was maintained in Dulbecco's Modified Eagle Medium/Nutrient Mixture F-12 (DMEM/F-12), supplemented with 10% v/v Fetal Bovine Serum, 100 U/mL penicillin and 100 μg/mL streptomycin. Monolayer cultures were grown in a humidified incubator at 37° C. with 5% CO2. Once cells had reached ~80% confluence, spent media was replaced with media containing photosensitizer at the required concentration and cells were incubated for the desired period of time to allow photosensitizer uptake.
(§4) Spectral absorbance and viability measurements were normalized in the range 0-100%, with a minimum of 0 and a maximum value determined from the dataset. Dose response was determined using a sigmoidal four-point non-linear regression with variable slope, and IC10 or IC90 calculated for each compound.
(§5) SKOV3 cells were seeded in 96-well black wall plates (Greiner #655090) at a cell density of 5000 cells in 100 μl culture medium per well. On reaching ~60% confluence, media was aspirated and replaced with fresh media containing the relevant pyropheophorbide a analogue from 0-100 μM in DMSO. Cells were incubated for a further 24 hours, allowing uptake of pyropheophorbide a analogues.
(§6) To test for inherent cytotoxicity (i.e. “dark toxicity”) of the pyropheophorbide a analogues, the culture media was replaced after 24 hours with fresh media containing 10% (v/v) AlamarBlue Cell Viability Reagent (ThermoFisher) and cells incubated at 37° C. for 6 hours. Untreated cells were used as a control. Fluorescence (Ex 555 nm/Em 596 nm) was measured using a Cytation 3 Cell Imaging Multi-Mode Reader (Biotek) or a CLARIOstar Plus Microplate Readear (BMG Labtech), and cytotoxicity assessed according to the % viable cells remaining. All measurements were made in quadruplicate.
(§7) The phototoxicity and inherent cytotoxicity (i.e. “dark toxicity”) of pyropheophorbide a analogues were assessed as previously using SKOV3 ovarian cancer cells. For comparative purposes, pyropheophorbide a analogues were compared against chlorin e4 disodium and Talaporfin sodium, a clinically approved photosensitizer used in the photodynamic treatment of lung cancers. Phototoxicity IC90 values and dark toxicity IC10 values were calculated using a log[inhibitor]-vs normalized response dose curve with variable slope, using the formula Y=100/(1+(IC90/X)^HillSlope (phototoxicity IC90)) or Y=100/(1+(IC10/X)^HillSlope (dark toxicity IC10)).

[3] = tested on: SKOV3 ovarian cancer cells; assay: Inherent cytotoxicity (dark toxicity) in SKOV3 cells without light (AlamarBlue viability); conditions: 24 h incubation, no light activation
Procedure: as §1, §2, §3, §4, §5, §6, §7

[4] = Homo sapiens, SK-OV-3, light or radiation study

SMILES | IC90 [1] | Dark toxicity μM (IC10) [2] | IC90 [1, 4] | Dark toxicity μM (IC10) ([2]; human, 24 h) | Dark toxicity μM (IC10) [3]
C=Cc1c(C)c2cc3nc(c(C)c4[nH]c(cc5nc(cc1[nH]2)C(C)=C5CC)c(C)c4C(=O)O)[C@@H](CCC(=O)O)[C@@H]3C [Chlorin e4 disodium, chlorin e4 disodium, reference compound] | 21.3 µM | 40.23 µM | – | – | –
CCC1=C(C)c2cc3[nH]c(cc4nc(c5c6[nH]c(cc1n2)c(C)c6C(=O)C5)[C@@H](CCC(=O)OC)[C@@H]4C)c(C)c3CO [Comparative Compound 1, pyropheophorbide a 9-hydroxymethyl methyl ester, reference compound] | – | – | 0.458 µM | 15.500 µM | –
CCC1=C(C)c2cc3[nH]c(cc4nc(c5c6[nH]c(cc1n2)c(C)c6C(=O)C5)[C@@H](CCC(=O)OC)[C@@H]4C)c(C)c3COC(=O)NCCC[P+](c1ccccc1)(c1ccccc1)c1ccccc1 [Compound 1, pyropheophorbide a methyl ester 9-(N-(3-triphenylphosphoniumpropyl)bromide)carbamate] | – | – | 0.038 µM | – | 3.088 µM
CCC1=C(C)c2cc3[nH]c(cc4nc(c5c6[nH]c(cc1n2)c(C)c6C(=O)C5)[C@@H](CCC(=O)OC)[C@@H]4C)c(C)c3COC(=O)CCCC[P+](c1ccccc1)(c1ccccc1)c1ccccc1 [Compound 2, pyropheophorbide a methyl ester 9-(oxopentyl)triphenylphosphonium bromide] | – | – | 0.002 µM | 0.415 µM | –
CCC1=C(C)c2cc3[nH]c(cc4nc(c5c6[nH]c(cc1n2)c(C)c6C(=O)C5)[C@@H](CCC(=O)OC)[C@@H]4C)c(C)c3CN(C)C(=O)CCCC[P+](c1ccccc1)(c1ccccc1)c1ccccc1 [Compound 3, pyropheophorbide a 9-N-(methyl-5-triphenylphosphonium bromidepentanamide) methyl ester] | – | – | 0.012 µM | 24.00 µM | –
CCC1=C(C)c2cc3[nH]c(cc4nc(c5c6[nH]c(cc1n2)c(C)c6C(=O)C5)[C@@H](CCC(=O)OC)[C@@H]4C)c(C)c3CNCCC[P+](c1ccccc1)(c1ccccc1)c1ccccc1 [Compound 4, pyropheophorbide a 9-(N-3-triphenylphosphoniumpropyl bromide)aminomethyl methyl ester] | – | – | 0.048 µM | – | 50.90 µM
CCOC(=O)N(CCC[P+](c1ccccc1)(c1ccccc1)c1ccccc1)Cc1c(C)c2cc3nc(c4c5[nH]c(cc6nc(cc1[nH]2)C(C)=C6CC)c(C)c5C(=O)C4)[C@@H](CCC(=O)OC)[C@@H]3C [Compound 5, pyropheophorbide a 9-(N-3-triphenylphosphoniumpropyl bromide ethylcarbamate)aminomethyl methyl ester] | – | – | 0.006 µM | – | 48.97 µM
C=Cc1c(C)c2cc3nc(c(CC(=O)N[C@@H](CC(=O)O)C(=O)O)c4[nH]c(cc5nc(cc1[nH]2)C(C)=C5CC)c(C)c4C(=O)O)[C@@H](CCC(=O)O)[C@@H]3C [Talaporfin sodium] | – | – | – | 11.10 µM | –
